In US20240261274A1, “TREATMENT OF MYC-DRIVEN CANCERS WITH GSPT1 DEGRADERS” (MONTE ROSA THERAPEUTICS, INC., priority 2021, published 2024):
Read-outs that look alike come from different tables or passages of the source.

Assays:
[1] = system: MDA-MB-468, MDA-MB-231, MDA-MB-436 and CAL51 triple negative breast cancer models; assay: In vivo anti-tumor activity of compound 8 in triple negative breast cancer models; set-up: species or system mice; settings: i.p. 37 and 75 mpk, 21 continuous days; all four models
Protocol: Shown are representative examples of triple negative breast cancer models with high 4EBP1 marker expression levels. Tumor growth was measured in MDA-MB-468 (ATCC HTB-132) (A), MDA-MB-231 (ATCC HTB-26) (B), MDA-MB-436 (ATCC HTB-130) (C) and CAL51 (DSMZ-ACC-302) (D) as indicated. compound 8 was dosed i.p at 37 and 75 mpk for 21 continuous days and tumor size measured every three days. Vehicle (black line), compound 8 dosed daily at 37 mpk (light grey) and 75 mpk (dark grey). X-axis represents days; y-axis represents the tumor volume (mm^3).

[2] = system: c-Myc HMEC isogenic cell line; assay: c-Myc and CRBN dependency, HMEC isogenic cell line viability (CellTiterGlo); format: cell-based, Human; settings: 72 hours
Protocol: Human mammary epithelial cells (HMEC) were engineered to express either c-Myc tagged with EGFP or EGFP alone (non myc) (analogous but distinct from Kessler J D et al, Science. 2012 Jan. 20; 335(6066):348-53. doi: 10.1126/science.1212728; Hsu T Y et al, Nature. 2015 Sep. 17; 525(7569):384-8. doi: 10.1038/nature14985). The engineered cells were plated in 6 well plates or seeded at 1000 (myc) or 4000 (non myc) cells/well in a 384 ultra-low attachment plate in a total volume of 40 μL HMEC cell culture media (DMEM/F12+10% HI-FBS+15 mM HEPES+0.5 ug/ml Hydrocortisone+10 ug/ml Insulin+20 ng/ml EGF). Cells were cultured in the presence or absence of doxycycline for 25 population doublings and cell lysates generated for western blotting probing for c-Myc, 4EBP1, phosphor-4EBP1 (p4EBP1) as indicated. β-actin used as a loading control. For the wash-off lane, doxycycline was removed 24 hours before cell lysis. Cell viability was assessed in the presence (Myc on) or absence (Myc off, −Dox) of doxycycline and also following doxycycline removal (Myc off, wash-off). Cell viability was performed following treatment with compound 8 for 72 hours as recommended by the provider (Promega, CellTiterGlo). Similarly, CRBN-dependency was assessed in the HMEC proficient and deficient cell lines induced for c-Myc expression with doxycycline and viability performed as above following 72 hours of treatment with compound 8. EC50 values were determined using Prism8 (GraphPad) and the asymmetric (five-parameter) equation and least squares fit.

[3] = system: c-Myc; assay: c-Myc levels in multiple myeloma and lymphoma cell lines after Compound 345 (western blot); format: cell-based; settings: 24 hr post treatment
Text: FIGS. 16A, 16B and 16C: Activity of Compound 345 in the c-Myc high multiple myeloma MM1S cell line. […] GAPDH was used as a loading control. […] Lenalidomide was used as a benchmark. 16C: Antiproliferative activity of Compound 345 (as indicated) following treatment with Compound 345 for 72 hr as assessed by Cell Titer Glo assay.
(§1) FIGS. 18A, 18B and 18C: Activity of Compound 345 in the c-Myc high WSU-DLCL2 lymphoma cell line. […] GAPDH was used as a loading control. 18B: Antiproliferative activity of Compound 345 (as indicated) following treatment with Compound 345 for 72 hr as assessed by Cell Titer Glo assay. […] Mice were dosed daily PO with vehicle or Compound 345 at 3, 10 mg/kg (as indicated). Tumor volumes were measured twice weekly. X-axis represents the number of days for treatment duration; y-axis represents mean tumor volume (in mm^3)±SEM. CHOP was used as a positive control for this model. Drug-free vehicle is represented by black circles; CHOP combination represented by light squares; Compound 345 3 mg/kg represented by triangles; Compound 345 10 mg/kg represented by dark squares.
as §1, with “19A, 19B,” for “18A, 18B”, “19C:” for “18C:”, “DOHH-2” for “WSU-DLCL2”, “19B:” for “18B:”, “model.” for “model. Drug-free vehicle is represented by black circles; CHOP combination represented by light squares; Compound 345 3 mg/kg represented by triangles; Compound 345 10 mg/kg represented by dark squares.”
Western blot analysis performed 24 hr post treatment initiation. GAPDH was used as a loading control. GSPT1 DC50 and Dmax as indicated.

[4] = system: MM1 S cells; assay: Apoptosis assay, caspase 3/7 activity in MM1 S cells; format: cell-based; settings: 0 to 30 μM, 48 hours
Protocol: For the same MM cell line, the effect of Compound 345 on apoptosis was evaluated. MM1 S cells were treated with Compound 345 in culture at increasing concentrations ranging from 0 to 30 μM and a control group was treated with lenalidomide, a well-known MM drug. After 48 hours, fold-change caspase 3/7 activity (a marker of apoptosis) was measured and plotted against concentration of Compound 345 compared to lenalidomide as the control. […] For the same MM cell line, the impact of Compound 345 on cell viability was evaluated. MM1 S cells were treated with Compound 345 in culture at increasing concentrations ranging from 0 to 100 μM. Cell viability was measured as a percentage survival after 72 hours.
Apoptosis assay: MM1S cells were sub-cultures as recommended by the providers (ATCC, DSMZ) and incubated at 37° C., 5% CO2. Briefly, cells were seeded in white 96-well plates (100 μL/well) at a density of 50000 cells/well and incubated overnight at 37° C. with 5% CO2. […] Cell apoptosis was assessed using the Caspase-Glo® 3/7 Assay kit as recommended by the manufacturer (Promega, Cat. No. G8091, Lot. No. 0000385738) and measurements were performed on the EnSpire multimode plate reader (Perkin Elmer). EC50 values were determined using Prism8.1.2 (GraphPad) and the asymmetric (five-parameter) equation and least squares fit.

Row | SMILES | anti-tumor activity (tumor volume) [1] | cell death in cells for which cereblon was knocked out ([2]; CRBN deficient HMEC induced for c-Myc) | EC50 ([2]; Homo sapiens, HMEC, absence of doxycycline-driven c-Myc expression, read-out: cell death, highest concentration tested) | EC50 ([2]; Homo sapiens, HMEC, presence of high c-Myc expression (doxycycline), read-out: EC50 of induced cell death) | EC50 ([2]; after doxycycline was washed out to remove c-Myc expression, read-out: cell death, highest concentration tested) | c-Myc level ([3]; DOHH-2 lymphoma cell line) | c-Myc level ([3]; MM1S multiple myeloma cell line) | c-Myc level ([3]; WSU-DLCL2 lymphoma cell line) | fold-change caspase 3/7 activity (apoptosis) [4]
1 | Cc1ccc(NC(=O)NCc2ccc3c(c2)C(=O)N(C2CCC(=O)NC2=O)C3)cc1Cl (stereo not drawn) [Compound 8] | robust and dose-dependent anti-tumor activity, including regressions | did not induce death | > 30 µM | 0.64 µM | > 30 µM |  |  |  | 
2 | O=C1CCC(N2Cc3ccc(COC(=O)Nc4cc(OC(F)(F)F)ccc4F)cc3C2=O)C(=O)N1 (stereo not drawn) [Compound 345, (2-(2,6-dioxopiperidin-3-yl)-3-oxoisoindolin-5-yl)methyl(2-fluoro-5-(trifluoromethoxy)phenyl)carbamate] |  |  |  |  |  | downregulation of c-Myc | downregulation of c-Myc | downregulation of c-Myc | strong induction of apoptosis
